Patent publication US12629378B2, “Treatment of infantile hemangioma” (Arkayli Biopharma Inc., priority 2019, dated 2026)
Converted amounts (≈) assume the structure as drawn. Each block holds one compound with its values, some of them ahead of it.

What was measured:
[1] = cited from earlier work; for Half-Life: in vivo; for distribution half-life: delivered intravenously
[2] = Esmolol solubility in various excipients; format: physicochemical
Description: Knowing the solubility of a drug in different excipients and chemical enhancers is important in optimizing the saturation solubility of the drug in topical and transdermal formulations. Here below is a table (Table 1) showing the solubility of esmolol in several excipients and chemical enhancers. The solubility of Esmolol was higher in hydrophilic excipients and lower in the more lipophilic excipients. Several of these compounds were used to prepare the formulations in Example 2, such as the co-enhancing system of oleyl alcohol and propylene glycol.

[3] = cited from earlier work
[4] = children, after an oral dose; cited from earlier work
[5] = adults; cited from earlier work
[6] = children with pediatric glaucoma, intraocular; cited from earlier work
[7] = cited from earlier work; remark: listed apart in the source
[8] = system: beta adrenergic receptors; details: times more potent; cited from earlier work
[9] = drop (0.05 mL) of timolol 0.5% solution to the eye of an adult; cited from earlier work
[10] = system: beta adrenergic receptors; details: fraction of the potency of Esmolol; cited from earlier work

Compound: CC(C)(C)NCC(O)COc1cccc2c1CCC(=O)N2 (stereo not shown) [Corteolol]
Half-Life [1]: 6 to 8 h

Sat. Conc. ([2]; Castor Oil (CO)): 23.4 mg/mL
Sat. Conc. ([2]; Cotton seed oil (CSO)): 101.9 mg/mL
Sat. Conc. ([2]; DMSO): 592.1 mg/mL
Sat. Conc. ([2]; Dipropylene Glycol): 257.6 mg/mL
Sat. Conc. ([2]; Ethanol): 310.4 mg/mL
Sat. Conc. ([2]; Glyceryl monooleate (GMO)): 157.3 mg/mL
Sat. Conc. ([2]; Isopropyl myristate (IPM)): 196.2 mg/mL
Sat. Conc. ([2]; Lauroglycol FCC (LG)): 122.2 mg/mL
Sat. Conc. ([2]; Oleic acid (OA)): 56.9 mg/mL
Sat. Conc. ([2]; Oleyl Alcohol): 112.2 mg/mL
Sat. Conc. ([2]; Olive Oil (OO)): 58.1 mg/mL
Sat. Conc. ([2]; PEG-400): 248.6 mg/mL
Sat. Conc. ([2]; Propylene Glycol): 450.7 mg/mL
Sat. Conc. ([2]; Sesame oil (SO)): 56.6 mg/mL
Sat. Conc. ([2]; Transcutol P): 344.5 mg/mL
solubility thermodynamic ([2]; water, read-out: Sat. Conc.): 704 mg/mL (≈ 2380 mM)
Compound: COC(=O)CCc1ccc(OCC(O)CNC(C)C)cc1 (stereo not shown) [Esmolol, methyl 3-[4-[2-hydroxy-3-(propan-2-ylamino)propoxy]phenyl]propanoate]
distribution half-life [1]: about 2 minutes
Half-Life [1]: 0.15 h

Compound: CC1(C)OC[C@@H](COC(=O)CCc2ccc(OC[C@@H](O)CNCCNC(=O)N3CCOCC3)cc2)O1 [Landiolol, [(4S)-2,2-dimethyl-1,3-dioxolan-4-yl]methyl 3-[4-[(2S)-2-hydroxy-3-[2-(morpholine-4-carbonylamino)ethylamino]propoxy]phenyl]propanoate]
LogP [3]: 0.44
distribution half-life [1]: about 2 minutes
Half-Life [1]: 0.05 to 0.1 h

Compound: COCCc1ccc(OCC(O)CNC(C)C)cc1 (stereo not shown) [Metoprolol]
Half-Life [1]: 3 to 7 h

Compound: CC(C)(C)NCC(O)COc1cccc2c1CC(O)C(O)C2 (stereo not shown) [Nadolol]
LogP [3]: 1
Half-Life [1]: 14 to 25 h

Compound: C=CCOc1ccccc1OCC(O)CNC(C)C (stereo not shown) [Oxprenolol]
LogP [3]: 2.1
Half-Life [1]: 1 to 2 h

Compound: CC(C)(C)NC[C@H](O)COc1ccccc1C1CCCC1 [Penbutolol]
LogP [3]: 4.15
Half-Life [1]: 20 h

Compound: CC(C)NCC(O)COc1cccc2[nH]ccc12 (stereo not shown) [Pindolol]
LogP [3]: 1.75
Half-Life [1]: 3 to 4 h

Compound: CC(C)NCC(O)COc1cccc2ccccc12 (stereo not shown) [Propranolol]
time of peak effect on blood pressure and heart rate [4]: around 2 hours
Half-Life [1]: 4 to 5 h

Compound: CC(C)(C)NC[C@H](O)COc1nsnc1N1CCOCC1 [Timolol]
plasma concentration demonstrated to have measurable systemic beta-blocking activity [5]: 0.2 ng/mL
systemic adverse effects (bradycardia, hypoglycemia, bronchial hyperreactivity), share of children [6]: 3-4%
plasma samples in which timolol was detected ([7]; 86/92 samples, applied to skin over IH): 93%
plasma level normalized for dose, mean ([7]; applied to skin over IH): 24.1 ± 62.7 ng/mL/mg
plasma level normalized for dose, median ([7]; applied to skin over IH): 3 ng/mL/mg
plasma level normalized for dose, range ([7]; applied to skin over IH): 0.06 to 424 ng/mL/mg
plasma level, median ([7]; applied to skin over IH): 0.98 ng/mL
plasma level, range ([7]; applied to skin over IH): 0.03 to 106 ng/mL
samples with plasma levels >0.2 ng/mL ([7]; applied to skin over IH): 80%
samples between 0.020-0.2 ng/mL ([7]; of 86 samples): 12/86
subjects with plasma levels ≥10 ng/mL ([7]; similar to intravenous administration): Ten
potency compared with propranolol [8]: 4-10 times
LogP [3]: 1.4
fraction of each drop systemically absorbed through the ocular mucosa [9]: approximately 80%
Half-Life [1]: 2.5 to 5 h

Compound: CC(C)NCC(O)COc1ccc(CCC(=O)O)cc1 (stereo not shown) [inactive metabolite]
potency relative to Esmolol [10]: 1/1500
